Ends that are not written are not given here.
Experiments:
Conditions in all cases: SD
[1] = target: nSH3 domain of Grb2 (Homo sapiens, UniProt P62993); test: ITC binding of Sos1 peptides to wildtype nSH3 domain of Grb2
[2] = target: cSH3 domain of Grb2 (Homo sapiens, UniProt P62993); test: ITC binding of Sos1 peptides to wildtype cSH3 domain of Grb2
[3] = target: cSH3_D190A mutant domain of Grb2 (Homo sapiens, UniProt P62993, D190A); test: ITC binding of Sos1 peptides to cSH3_D190A mutant domain
Sequence of cSH3_D190A mutant domain of Grb2 (P62993 156-215 D190A limits assumed): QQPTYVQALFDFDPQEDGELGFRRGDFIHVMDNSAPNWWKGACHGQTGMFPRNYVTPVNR

[4] = target: nSH3_D33A mutant domain of Grb2 (Homo sapiens, UniProt P62993, D33A); test: ITC binding of Sos1 peptides to nSH3_D33A mutant domain
Sequence of nSH3_D33A mutant domain of Grb2 (P62993 1-58 D33A limits assumed): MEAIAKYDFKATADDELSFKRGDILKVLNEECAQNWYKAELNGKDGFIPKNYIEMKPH

[5] = target: cSH3_D187A mutant domain of Grb2 (Homo sapiens, UniProt P62993, D187A); test: ITC binding of Sos1 peptides to cSH3_D187A mutant domain
Sequence of cSH3_D187A mutant domain of Grb2 (P62993 156-215 D187A limits assumed): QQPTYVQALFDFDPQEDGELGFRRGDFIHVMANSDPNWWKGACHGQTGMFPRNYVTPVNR

[6] = target: nSH3_E31A mutant domain of Grb2 (Homo sapiens, UniProt P62993, E31A); test: ITC binding of Sos1 peptides to nSH3_E31A mutant domain
Sequence of nSH3_E31A mutant domain of Grb2 (P62993 1-58 E31A limits assumed): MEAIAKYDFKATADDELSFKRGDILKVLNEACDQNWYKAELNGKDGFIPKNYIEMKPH

Sequence of cSH3 domain of Grb2 (P62993 156-215 limits assumed): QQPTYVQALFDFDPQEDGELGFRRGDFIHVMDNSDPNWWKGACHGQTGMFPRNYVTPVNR
Sequence of nSH3 domain of Grb2 (P62993 1-58 limits assumed): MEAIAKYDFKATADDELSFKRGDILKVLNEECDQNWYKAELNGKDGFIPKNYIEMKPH

| Sequence | Kd [1] [µM] | Kd [2] [µM] | Kd [3] [µM] | Kd [4] [µM] | Kd [5] [µM] | Kd [6] [µM] |
| --- | --- | --- | --- | --- | --- | --- |
| PVPPPVPPAAAP [Peptide S1_AAA] | 2560 ± 335 | 3090 ± 121 |  |  |  |  |
| PVPPPVPPARRP [S1_R+5A] | 490 ± 20 | 962 ± 26 |  |  |  |  |
| PVPPPVPPRAAP [Peptide S1_AA] | 84 ± 1 | 1570 ± 27 |  |  |  |  |
| PVPPPVPPRARP [S1_R+6A] | 53 ± 1 | 331 ± 2 | 910 ± 57 | 137 ± 7.6 | 544 ± 102 | 67 ± 0.3 |
| PVPPPVPPRRAP [S1_R+7A] | 72 ± 1 | 318 ± 23 | 482 ± 47 | 169 ± 4.5 | 2390 ± 73 | 91 ± 1.2 |

Further lines, results first:

| Kd [1] [µM] | Kd [2] [µM] | Kd [3] [µM] | Kd [4] [µM] | Kd [5] [µM] | Kd [6] [µM] | Sequence |
| --- | --- | --- | --- | --- | --- | --- |
| 56 ± 5 | 1400 ± 87 |  |  |  |  | DSPPAIPPRQPT [Peptide S2] |
| 117 ± 2 | 1720 ± 33 |  |  |  |  | ESPPLLPPREPV [Peptide S3] |
| 82 ± 1 | 1320 ± 44 |  |  |  |  | IAGPPVPPRQST [Peptide S4] |

From PMC2710136 (Biochemistry, 2009)
